Assay results from paper PMC6342991, “Effects of point mutations in the binding pocket of the mouse major urinary protein MUP20 on ligand affinity and specificity” (Scientific Reports, 2019).
Where a chain is given by its changes, count along the chain named. Several values for one entry are separate records, joined by “and”; a condition that tells them apart may be missing. Equal entries are not always repeated. Entries after “also recorded” stand apart in the source; their conditions may differ. Where two headings read alike, the source gives them in different places.

Tests used:
MUP20Y103R = target: T1, MUP20Y103R (Mus musculus, UniProt Q5FW60, Y103R); experiment: Fluorescence competitive binding assay with 1-NPN, MUP20 Y103R
T1 construct: 6xHis (N); made in house; host or cells: E. coli BL21(DE3), pET5b
T1 sequence (Q5FW60 20-181 Y103R): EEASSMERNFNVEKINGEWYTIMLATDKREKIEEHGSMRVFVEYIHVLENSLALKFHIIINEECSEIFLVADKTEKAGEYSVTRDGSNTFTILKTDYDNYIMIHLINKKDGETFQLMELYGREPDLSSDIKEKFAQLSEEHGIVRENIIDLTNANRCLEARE
Procedure: (§1) Fluorescence competitive binding assays: Fluorescence-competitive binding assays were carried out using the fluorescent probe N-phenyl-1-naphthylamine (1-NPN), as described[39],[40]. A binding curve was constructed and the dissociation constant of the probe (KD) was calculated.
(§2) The binding analyses assumed that the protein had 100% activity and that the stoichiometry of binding was 1:1 at saturation. The affinity of various volatile ligands was measured in competitive binding assays.
(§3) The change in fluorescence was recorded after adding increasing concentrations of ligand. Competitor concentrations causing a decay of fluorescence to half-maximal intensity were determined as IC50 and the dissociation constant for the test ligands (expressed as Kd) was calculated using the following formula:1 Kd=[IC50]/1+[Probe]/KD where [Probe] is the free concentration of the fluorescent probe and KD is the dissociation constant of the complex Protein/Probe.

MUP20Y103D [1] = target: T2, MUP20Y103D (Mus musculus, UniProt Q5FW60, Y103D); experiment: Fluorescence competitive binding assay with 1-NPN, MUP20 Y103D
T2 construct: 6xHis (N); made in house; host or cells: E. coli BL21(DE3), pET5b
T2 sequence (Q5FW60 20-181 Y103D): T1 sequence (Q5FW60 20-181 Y103R) with R84D
Procedure: as §1, §2, §3

MUP20L124V [2] = target: T3, MUP20L124V (Mus musculus, UniProt Q5FW60, L124V); experiment: Fluorescence competitive binding assay with 1-NPN, MUP20 L124V
T3 construct: 6xHis (N); made in house; host or cells: E. coli BL21(DE3), pET5b
T3 sequence (Q5FW60 20-181 L124V): T1 sequence (Q5FW60 20-181 Y103R) with R84Y, L105V
Procedure: as §1, §2, §3

MUP20E137K = target: T4, MUP20E137K (Mus musculus, UniProt Q5FW60, E137K); experiment: Fluorescence competitive binding assay with 1-NPN, MUP20 E137K
T4 construct: 6xHis (N); made in house; host or cells: E. coli BL21(DE3), pET5b
T4 sequence (Q5FW60 20-181 E137K): T1 sequence (Q5FW60 20-181 Y103R) with R84Y, E118K
Procedure: as §1, §2, §3

wild type MUP20 [3] = target: T5, wild type MUP20 (Mus musculus, UniProt Q5FW60); experiment: Fluorescence competitive binding assay with 1-NPN, wild type MUP20; settings: 1-NPN displacement, 50 mM Tris-HCl pH 7.4, 25 °C
T5 construct: 6xHis (N); made in house; host or cells: E. coli BL21(DE3), pET5b
T5 sequence (Q5FW60 20-181): T1 sequence (Q5FW60 20-181 Y103R) with R84Y
Procedure: as §1, §2, §3

MUP20N107L = target: T6, MUP20N107L (Mus musculus, UniProt Q5FW60, N107L); experiment: Fluorescence competitive binding assay with 1-NPN, MUP20 N107L
T6 construct: 6xHis (N); made in house; host or cells: E. coli BL21(DE3), pET5b
T6 sequence (Q5FW60 20-181 N107L): T1 sequence (Q5FW60 20-181 Y103R) with R84Y, N88L
Procedure: as §1, §2, §3

MUP20L88Q [4] = target: T7, MUP20L88Q (Mus musculus, UniProt Q5FW60, L88Q); experiment: Fluorescence competitive binding assay with 1-NPN, MUP20 L88Q; settings: 1-NPN displacement, 50 mM Tris-HCl pH 7.4, 25 °C
T7 construct: 6xHis (N); made in house; host or cells: E. coli BL21(DE3), pET5b
T7 sequence (Q5FW60 20-181 L88Q): T1 sequence (Q5FW60 20-181 Y103R) with L69Q, R84Y
Procedure: as §1
The affinity of various volatile ligands was measured in competitive binding assays.
as §3

MUP20V59T = target: T8, MUP20V59T (Mus musculus, UniProt Q5FW60, V59T); experiment: Fluorescence competitive binding assay with 1-NPN, MUP20 V59T
T8 construct: 6xHis (N); made in house; host or cells: E. coli BL21(DE3), pET5b
T8 sequence (Q5FW60 20-181 V59T): T1 sequence (Q5FW60 20-181 Y103R) with V40T, R84Y
Procedure: as §1, §2, §3

MUP20 mutant L88Q = target: T9, MUP20 mutant L88Q (Mus musculus, UniProt Q5FW60, L88Q); experiment: Isothermal titration calorimetry, MUP20 L88Q; assay type: binding; settings: for Kd: one-site binding model, 25 °C, 50 mM Tris HCl pH 7.4, read-out: Equilibrium dissociation constant Kd (ITC), L88Q
T9 construct: 6xHis (N); made in house; host or cells: E. coli BL21(DE3), pET5b
T9 sequence (Q5FW60 20-181 L88Q): T1 sequence (Q5FW60 20-181 Y103R) with L69Q, R84Y
Procedure: (§4) ITC titrations were performed at 25 ± 0.1 °C in 50 mM Tris HCl pH 7.4, using a MicroCal VP-ITC instrument. To a MUP solution (1.7 ml, 25 µM) were sequentially added 25 aliquots (10 μl each) of a ligand stock solution (500 μM), with a delay of 4 min after each injection with continuous stirring of the solution (at 307 r.p.m.) in the sample cell. Before analysis, protein samples were dialyzed overnight in the same buffer, using a Slide-A-Lyzer (3.5-kDa cutoff) from ThermoFisher Scientific (Waltham, MA, USA), and thoroughly degassed. The heat of dilution was determined in control experiments by injecting aliquots (10 µl) of a ligand stock solution (500 µM) into buffer and this was subtracted from the integrated binding isotherm prior to curve fitting. Each injection generated a heat-burst curve (μcal s^−1) versus time (min). The area under each peak was determined by integration using Origin 7.5 software (Microcal, Inc.) to give the heat associated with the injection. The heat exchanged per mole of injectant was plotted against the ligand:protein molar ratio. The binding constants (Ka) and stoichiometry (N) parameters of the binding process were obtained by fitting the integrated heats of binding to the one-site binding model using the MicroCal ITC Data Analysis software.

MUP20Y103D [5] = target: T2, MUP20Y103D; set-up: method as in Scorsone et al., IEEE Sensors Journal 2016, 16, 6543, Tab. 1; settings: ref Scorsone et al., IEEE Sensors Journal 2016, 16, 6543, Tab. 1; read-out: Kd, Y103D (starred value); cited from earlier work
wild type MUP20 [6] = target: T5, wild type MUP20; set-up: method as in Scorsone et al., IEEE Sensors Journal 2016, 16, 6543, Tab. 1; settings: ref Scorsone et al., IEEE Sensors Journal 2016, 16, 6543, Tab. 1; read-out: Kd, WT (starred value); cited from earlier work
MUP20 mutant Y103R = target: T10, MUP20 mutant Y103R (Mus musculus, UniProt Q5FW60, Y103R); experiment: Isothermal titration calorimetry, MUP20 Y103R; assay type: binding; settings: 25 °C, 50 mM Tris HCl pH 7.4
T10 construct: 6xHis (N); made in house; host or cells: E. coli BL21(DE3), pET5b
T10 sequence (Q5FW60 20-181 Y103R): T1 sequence (Q5FW60 20-181 Y103R)
Procedure: as §4

wild type MUP20 [7] = target: T5, wild type MUP20; experiment: Isothermal titration calorimetry, wild type MUP20; assay type: binding; settings: for Kd: one-site binding model, 25 °C, 50 mM Tris HCl pH 7.4, read-out: Equilibrium dissociation constant Kd (ITC), WT
Procedure: as §4

MUP20 mutant L124V = target: T11, MUP20 mutant L124V (Mus musculus, UniProt Q5FW60, L124V); experiment: Isothermal titration calorimetry, MUP20 L124V; assay type: binding; settings: for Drop of affinity of L124V compared to wild-type MUP20 (ITC): decrease in affinity; for Kd: one-site binding model, 25 °C, 50 mM Tris HCl pH 7.4, read-out: Equilibrium dissociation constant Kd (ITC), L124V
T11 construct: 6xHis (N); made in house; host or cells: E. coli BL21(DE3), pET5b
T11 sequence (Q5FW60 20-181 L124V): T1 sequence (Q5FW60 20-181 Y103R) with R84Y, L105V
Procedure: as §4

MUP20L124V [8] = target: T3, MUP20L124V; set-up: method as in Scorsone et al., IEEE Sensors Journal 2016, 16, 6543, Tab. 1; settings: ref Scorsone et al., IEEE Sensors Journal 2016, 16, 6543, Tab. 1; read-out: Kd, L124V (starred value); cited from earlier work
MUP20L88Q [9] = target: T7, MUP20L88Q; set-up: method as in Scorsone et al., IEEE Sensors Journal 2016, 16, 6543, Tab. 1; settings: ref Scorsone et al., IEEE Sensors Journal 2016, 16, 6543, Tab. 1; read-out: Kd, L88Q (starred value); cited from earlier work
[10] = 1-NPN displacement, 50 mM Tris-HCl pH 7.4, 25 °C, read-out: Measured Kd, Y103R
[11] = 1-NPN displacement, 50 mM Tris-HCl pH 7.4, 25 °C, read-out: Measured Kd, Y103D
[12] = 1-NPN displacement, 50 mM Tris-HCl pH 7.4, 25 °C, read-out: Measured Kd, L124V
[13] = 1-NPN displacement, 50 mM Tris-HCl pH 7.4, 25 °C, read-out: Measured Kd, E137K
[14] = 1-NPN displacement, 50 mM Tris-HCl pH 7.4, 25 °C, read-out: Measured Kd, N107L
[15] = 1-NPN displacement, 50 mM Tris-HCl pH 7.4, 25 °C, read-out: Measured Kd, V59T

Structure (SMILES)	Kd (MUP20Y103R; [10]) [µM]	Kd (MUP20Y103D [1]; [11]) [µM]	Kd (MUP20L124V [2]; [12]) [µM]	Kd (MUP20E137K; [13]) [µM]	Kd (wild type MUP20 [3]; read-out: Measured Kd, WT)	Kd (MUP20N107L; [14]) [µM]	Kd (MUP20L88Q [4]; read-out: Measured Kd, L88Q)	Kd (MUP20V59T; [15]) [µM]	Kd (MUP20 mutant L88Q) [µM]	Binding strength to Y103R mutant (ITC) (MUP20 mutant Y103R)	Kd (wild type MUP20 [7]) [µM]	Drop of affinity of L124V compared to wild-type MUP20 (ITC) (MUP20 mutant L124V) [fold]	Kd (MUP20 mutant L124V) [µM]	other results
Cc1ccc(O)c(C)c1 [2,4-DMP, 2,4-dimethylphenol]	–	–	–	–	–	–	–	–	–	–	–	–	–	Kd (MUP20Y103R): 11.9 µM; Kd (MUP20Y103D [1]): 4.68 µM; Kd (MUP20L124V [2]): 1.3 µM; Kd (MUP20E137K): 4.05 µM; Kd (wild type MUP20 [3]; Measured Kd, WT): 4.24 µM; Kd (MUP20N107L): 1.99 µM; Kd (MUP20L88Q [4]; Measured Kd, L88Q): 5.08 µM; Kd (MUP20V59T): 1.44 µM
C=CC(C)(O)CCC=C(C)C (stereo not drawn) [LIN, 3,7-dimethylocta-1,6-dien-3-ol]	5.93	2.17	0.29	1.85	2.82 µM	1.37	2.21 µM	1.6	–	–	–	–	–	–
CC1=CC(=O)c2ccccc2C1=O [MEN, methylnapthalene-1,4-dione]	–	–	–	2.14	–	1.23	–	1.85	13 ± 6	barely detectable	76 ± 19	25	1900 ± 100	Kd (MUP20Y103D [5]): 0.82 µM; Kd (wild type MUP20 [6]): 0.61 µM; Kd (MUP20L124V [8]): 0.07 µM; Kd (MUP20L88Q [9]): 1.31 µM
CCCCCCC(CO)CCCC (stereo not drawn) [OCT, 2-butyl-1-octanol]	1.88	0.92	0.36	3.2	0.78 µM	2.67	1.45 µM	1.54	–	–	–	–	–	–
COc1nccnc1CC(C)C [PYR, 2-isobutyl-3-methoxypyrazine]	0.74	0.84	0.07	1.52	1.29 µM and 1.3 µM	1.4	1.39 µM and 1.4 µM	1.93	2.4	barely detectable	1.6	1300	2100 ± 200	Change of affinity of L88Q compared to wild-type MUP20 (ITC) (MUP20 mutant L88Q; number = increase in affinity): did not appreciably affect; also recorded: does not alter; Affinity for wild type MUP20 relative to MEN (ITC) (wild type MUP20 [7]; higher affinity than MEN): > 40 fold
